{"source": "patent US20170239239A1", "about": "“Method for Inducing a Sustained Immune Response” (Immune Therapeutics Inc., priority 2016, published 2017)", "key": {"[1]": {"test_system": "lymphocyte subsets of autistic children", "assay": "Behavioral and immunological assessment in autism, double-blind naltrexone", "design": "species or system human", "settings": "in vivo", "excerpt": "Opioid-immune interactions in autism: behavioral and immunological assessment during a double-blind treatment with naltrexone.\nChanges in natural killer cells and activity were inversely related to plasma beta-endorphin levels."}, "autism [2]": {"test_system": "autism", "assay": "10 studies of naltrexone in 155 children with autism", "format": "in vivo, human", "excerpt": "155 children participated in 10 studies; 27 received placebo."}, "[3]": {"test_system": "primary progressive multiple sclerosis (PPMS)", "assay": "Six month phase II multicenter pilot trial in primary progressive multiple sclerosis, 40 patients", "format": "in vivo, human", "experimental": "The primary end points were safety and tolerability. Secondary outcomes were efficacy on spasticity, pain, fatigue, depression, and quality of life. Clinical and biochemical evaluations were serially performed. Protein concentration of beta-endorphins (BE) and mRNA levels and allelic variants of the mu-opioid receptor gene (OPRM1) were analyzed."}, "HIV/AIDS patients": {"test_system": "HIV/AIDS patients", "assay": "Naltrexone as adjunct therapy, 50 HIV patients in Africa", "format": "in vivo, human", "excerpt": "Naltrexone as an adjunct therapy with HIV/AIDS patients. […] HIV disease is associated with a new constellation of problems, generally referred to as “non-AIDS morbidity”, and, in the popular press, “premature aging. […] at risk for developing a number of non-AIDS conditions, including cardiovascular disease, cancer, kidney disease, liver disease, osteopenia/osteoporosis and neurocognitive disease (collectively referred to as “serious non-AIDS events”). Malignancies associated with infections such as human papilloma virus (including uro-genital and head and neck cancers), Epstein Barr Virus (including Hodgkins disease), and hepatitis B and C (hepatocellular carcinoma), are also relatively common in HIV-infected adult. […] Subtle elevations in many of these biomarkers are associated with dramatic increases in the risk of subsequent disease, including all-cause mortality For example, as compared to a well-matched uninfected population, treated HIV-infected adults have approximately 50 to 100% higher levels of the inflammatory cytokine interleukin-6 (IL-6)^(32). […] Risk factors for impaired CD4 T-cell recovery include low pre-treatment CD4+ T cell count nadir, co-infection with other viruses such as hepatitis C, older age, and perhaps viral factors(24). Suboptimal treatment-mediated CD4+ T cell outcomes likely have clinical consequences given the consistent association between CD4+ T cell counts during ART and elevated risk of many co-morbidities (e.g., heart disease, cancer) and all-cause mortality. Chronic signaling through the interferon-alpha pathway may contribute to this inflammatory disease^(32), as can the impact of virus production/entry (without productive infection) on pyroptosis, which is a highly inflammatory process that can cause death of affected and neighboring cells. The frequency of activated T cells remains elevated during chronic treatment and appears related to size of the HIV reservoir and pace of immune reconstitution although the effect of this marker in predicting overall morbidity and mortality is not as strong as some of the innate immune system inflammatory markers^(37).\nWe believe that long term monitoring of patients will show a reduction in non-AIDS morbidity."}, "autism [4]": {"test_system": "autism", "assay": "Case reports, autism", "settings": "child"}, "psoriatic arthritis": {"test_system": "psoriatic arthritis", "assay": "Case report, psoriatic arthritis", "format": "in vivo, human"}, "colon cancer": {"test_system": "colon cancer", "assay": "Case report, stage 4 colon cancer", "format": "in vivo, human", "excerpt": "A person diagnosed with stage 4-colon cancer, 2007 which had spread to their lungs and liver, they removed 40% of their colon and began a round of chemotherapy and three surgeries removed 40% of their colon, half is their right lung and 75% of their liver. During the next 18 months received 47 weeks of chemotherapy (a combination of 4 chemo drugs at once)."}, "Follicular Lymphoma (FL)": {"test_system": "Follicular Lymphoma (FL)", "settings": "1 year after last CT/PET imaging; cited from earlier work"}, "autism [5]": {"test_system": "autism", "assay": "Randomized, double blind, placebo-controlled study in autism", "format": "in vivo, human"}, "asymptomatic HIV+ adults": {"test_system": "asymptomatic HIV+ adults", "assay": "Single blind 90 day randomized bridging clinical trial in Nigeria", "format": "in vivo, human", "experimental": "The differences in CD4 count, CD4%, hemoglobin, viral load, interferon alpha, and standard chemistry panel were measured between treated versus non-treated groups four times throughout the study. […] When used alone, it appears to slow and/or stop the progression of the disease."}, "MS patients": {"test_system": "MS patients", "assay": "Retrospective chart review of MS patients receiving LDN", "format": "in vivo, human", "excerpt": "This study investigated the safety, tolerability, and benefits (fatigue, reduction) of LDN in patients with MS. It reviewed the number of patients who stopped taking LDN and if there were specific reasons for stopping the LDN. The frequency and variety of side effects that were specific to LDN use are reported. […] 1, 2005 and May 31, 2012. There were 215 MS patients having exposure to LDN during the time of this study. […] In addition to the assessment we review Brain MRIs and Spinal Cord MRIs that were obtained as part of the clinical status of the patient and standard of care.\nIt reviewed the number of patients who stopped taking IMMEDIATE RELEASE NALTREXONE (LDN) and if there were specific reasons for stopping the IMMEDIATE RELEASE NALTREXONE (LDN). […] 1, 2005 and May 31, 2012. […] In addition to the assessment we review Brain Mills and Spinal Cord MRIs that were obtained as part of the clinical status of the patient and standard of care."}, "[6]": {"settings": "of the 128 that received naltrexone"}}, "note": "Read-outs that look alike come from different tables or passages of the source."}
{"compound": "O=C1CC[C@@]2(O)[C@H]3Cc4ccc(O)c5c4[C@@]2(CCN3CC2CC2)[C@H]1O5", "note": "[Immediate release naltrexone, naltrexone]", "values": [{"measurement": "pain scores NRS", "setting": "CRPS; patient, EDS, 3 mg then 4.5 mg per day, from (7-10)/10", "value": "3-5 /10"}, {"measurement": "post-operative pain NRS", "setting": "CRPS; patient, 3 weeks after resuming", "value": "4-6 /10"}, {"measurement": "side effects", "setting": "CRPS; patient, 18 months", "value": "No side effects"}, {"measurement": "fixed dystonia of the leg", "setting": "CRPS; patient, at cast removal after ankle surgery", "value": "remission"}, {"measurement": "effect on the dystonia", "setting": "CRPS; patient, first months of treatment", "value": "no effect"}, {"measurement": "CRPS symptoms", "setting": "CRPS; patient, maintained for 18 months", "value": "resolved completely"}, {"measurement": "side effects", "setting": "CRPS; person five", "value": "No side effects"}, {"measurement": "pain, average on the Numeric Rating Scale (NRS)", "setting": "CRPS; person five, 4.5 mg per day at night, from 8 to 10 before", "value": "5 to 6"}, {"measurement": "dystonic spasms", "setting": "CRPS; person five, within 2 months", "value": "discontinued"}, {"measurement": "T-cytotoxic-suppressor (CD4− CD8+)", "setting": "[1]", "value": "significant reduction"}, {"measurement": "T-helper-inducers (CD4+ CD8−)", "setting": "[1]", "value": "significant increase"}, {"measurement": "side effects", "setting": "autism [2]; in vivo", "value": "mild"}, {"measurement": "tolerability", "setting": "autism [2]; in vivo", "value": "generally well tolerated"}, {"measurement": "children with statistically significant improvement in irritability and hyperactivity", "setting": "autism [2]; [6]", "value": 77, "unit": "%"}, {"measurement": "children with statistically significant improvement in irritability and hyperactivity, number", "setting": "autism [2]; [6]", "value": 98}, {"measurement": "major adverse events", "setting": "[3]; 40 patients", "value": "two"}, {"measurement": "BE (beta-endorphins) concentration", "setting": "[3]; during the trial", "value": "increased"}, {"measurement": "spasticity", "setting": "[3]; end of the trial", "value": "significant reduction"}, {"measurement": "Neurological disability", "setting": "[3]; human, in vivo", "value": "progressed in only one patient"}, {"measurement": "safety and tolerability", "setting": "[3]; six months", "value": "safe and well tolerated"}, {"measurement": "opportunistic infection", "setting": "HIV/AIDS patients; long term", "value": "reduction"}, {"measurement": "quality of life", "setting": "HIV/AIDS patients; long term", "value": "higher"}, {"measurement": "Th1/Th2 balance", "setting": "HIV/AIDS patients; with standard of care (ART)", "value": "shift from Th1 (pro-inflammatory) to Th2 (anti-inflammatory)"}, {"measurement": "inflammatory cytokine", "setting": "HIV/AIDS patients; with standard of care (ART)", "value": "Secreased"}, {"measurement": "language skills", "setting": "autism [4]", "value": "improved"}, {"measurement": "side effect", "setting": "autism [4]", "value": "a little constipation"}, {"measurement": "illness", "setting": "autism [4]; continually sick before", "value": "has not been sick since starting"}, {"measurement": "hyperactivity", "setting": "autism [4]; 3 mg", "value": "increased for the first three weeks"}, {"measurement": "social behaviors", "setting": "autism [4]; 3 mg, over the next months", "value": "skyrocketed"}, {"measurement": "use of other medication", "setting": "psoriatic arthritis; person, 4.5 mg at bedtime, within 10 days", "value": "able to discontinue all paid medications as well as the Humira"}, {"measurement": "disease course", "setting": "psoriatic arthritis; six months", "value": "the disease has stabilized and the progressive deterioration has stopped"}, {"measurement": "completion of chemotherapy protocol", "setting": "colon cancer; person, 4.5 mg nightly with chemotherapy", "value": "without any major side effects"}, {"measurement": "scans every six months", "setting": "colon cancer; until June of 2015", "value": "cancer free"}, {"measurement": "disease symptoms at follow-up", "setting": "Follicular Lymphoma (FL)", "value": "remains asymptomatic"}, {"measurement": "Actometer readings", "setting": "autism [5]; children very active at baseline", "value": "improved in two children"}, {"measurement": "Changes in parent measures (CGI, Conners Impulsivity-Hyperactivity Factor, SE-Restlessness) and Teacher CGI", "setting": "autism [5]; in vivo", "value": "achieved statistical significance"}, {"measurement": "subjects improved in two or more settings", "setting": "autism [5]; in vivo", "value": "Eight of 13"}, {"measurement": "improvement in CD4 count, increase", "setting": "asymptomatic HIV+ adults; about 4.5 mg single oral dose with ART, at 3 months, vs control group", "value": 44, "unit": "%"}, {"measurement": "BMI", "setting": "asymptomatic HIV+ adults; about 4.5 mg with ART", "value": "increase"}, {"measurement": "opportunistic infections", "setting": "asymptomatic HIV+ adults; about 4.5 mg with ART", "value": "reduction"}, {"measurement": "Improvement in CD4%", "setting": "asymptomatic HIV+ adults; about 4.5 mg with ART, throughout treatment", "value": "statistically significant"}, {"measurement": "quality of life surveys: patients improved", "setting": "MS patients; human, in vivo", "value": 83, "unit": "patients"}, {"measurement": "quality of life surveys: patients stable", "setting": "MS patients; human, in vivo", "value": 92, "unit": "patients"}, {"measurement": "quality of life surveys: patients worse", "setting": "MS patients; human, in vivo", "value": 9}, {"measurement": "MRI scans showed improvement", "setting": "MS patients; of 215 patients", "value": 14}, {"measurement": "MRI scans stable", "setting": "MS patients; of 215 patients", "value": 113}, {"measurement": "MRI scans slightly worse", "setting": "MS patients; of 215 patients, new but inactive lesion(s)", "value": 28}, {"measurement": "quality of life", "setting": "MS patients; over a long period of time", "value": "improvement"}]}
